Measurements taken from ChEMBL document CHEMBL5291721, “A preclinical secondary pharmacology resource illuminates target-adverse drug reaction associations of marketed drugs” (Nat Commun, 2023).

Legend:
[1] = biological target: Gamma-aminobutyric acid receptor subunit alpha-1 (Rattus norvegicus, UniProt P62813)
[2] = biological target: T1, 5-hydroxytryptamine receptor 3A (Homo sapiens, UniProt P46098); type: functional
T1 sequence (P46098 whole entry): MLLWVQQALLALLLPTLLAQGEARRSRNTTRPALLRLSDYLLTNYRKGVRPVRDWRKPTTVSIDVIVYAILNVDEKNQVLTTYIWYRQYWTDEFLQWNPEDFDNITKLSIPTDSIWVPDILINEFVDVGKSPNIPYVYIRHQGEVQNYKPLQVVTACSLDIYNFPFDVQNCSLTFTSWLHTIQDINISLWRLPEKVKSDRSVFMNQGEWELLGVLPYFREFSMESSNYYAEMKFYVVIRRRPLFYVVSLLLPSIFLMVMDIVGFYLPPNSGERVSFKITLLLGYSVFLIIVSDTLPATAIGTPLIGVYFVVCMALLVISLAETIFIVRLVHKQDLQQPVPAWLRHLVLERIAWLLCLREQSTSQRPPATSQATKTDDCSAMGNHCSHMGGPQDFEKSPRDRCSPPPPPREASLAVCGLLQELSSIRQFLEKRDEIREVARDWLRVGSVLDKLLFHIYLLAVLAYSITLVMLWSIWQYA

[3] = biological target: Melanocortin receptor 3 (Homo sapiens, UniProt P41968)
[4] = biological target: T2, Equilibrative nucleoside transporter 1 (Homo sapiens, UniProt Q99808)
T2 sequence (Q99808 whole entry): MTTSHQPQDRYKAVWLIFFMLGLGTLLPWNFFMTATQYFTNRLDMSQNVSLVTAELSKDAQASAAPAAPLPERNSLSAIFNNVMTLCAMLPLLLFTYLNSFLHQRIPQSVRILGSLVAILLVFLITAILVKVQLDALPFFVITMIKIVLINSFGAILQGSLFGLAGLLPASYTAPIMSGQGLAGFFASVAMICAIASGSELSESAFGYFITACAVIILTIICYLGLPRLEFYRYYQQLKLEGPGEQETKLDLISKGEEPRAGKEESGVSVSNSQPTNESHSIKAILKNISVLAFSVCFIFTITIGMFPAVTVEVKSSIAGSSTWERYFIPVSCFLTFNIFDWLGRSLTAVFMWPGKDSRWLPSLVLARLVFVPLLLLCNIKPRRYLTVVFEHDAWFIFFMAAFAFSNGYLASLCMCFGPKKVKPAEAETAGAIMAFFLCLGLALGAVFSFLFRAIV

[5] = biological target: T3, Thromboxane A2 receptor (Homo sapiens, UniProt P21731)
T3 sequence (P21731 whole entry): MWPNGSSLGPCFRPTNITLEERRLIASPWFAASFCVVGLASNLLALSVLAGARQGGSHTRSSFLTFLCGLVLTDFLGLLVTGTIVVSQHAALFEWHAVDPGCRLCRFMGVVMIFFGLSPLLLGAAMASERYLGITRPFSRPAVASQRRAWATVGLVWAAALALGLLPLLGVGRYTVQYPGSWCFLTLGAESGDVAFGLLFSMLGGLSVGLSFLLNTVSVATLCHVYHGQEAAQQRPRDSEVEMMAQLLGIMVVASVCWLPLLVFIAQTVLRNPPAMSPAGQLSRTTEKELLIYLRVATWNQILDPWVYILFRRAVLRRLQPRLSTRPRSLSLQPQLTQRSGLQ

[6] = biological target: D(1A) dopamine receptor (Homo sapiens, UniProt P21728); type: functional, cell-based
[7] = biological target: Histamine H2 receptor (Homo sapiens, UniProt P25021); type: functional, cell-based
[8] = biological target: T4, 5-hydroxytryptamine receptor 1A (Homo sapiens, UniProt P08908); type: functional, cell-based
T4 sequence (P08908 whole entry): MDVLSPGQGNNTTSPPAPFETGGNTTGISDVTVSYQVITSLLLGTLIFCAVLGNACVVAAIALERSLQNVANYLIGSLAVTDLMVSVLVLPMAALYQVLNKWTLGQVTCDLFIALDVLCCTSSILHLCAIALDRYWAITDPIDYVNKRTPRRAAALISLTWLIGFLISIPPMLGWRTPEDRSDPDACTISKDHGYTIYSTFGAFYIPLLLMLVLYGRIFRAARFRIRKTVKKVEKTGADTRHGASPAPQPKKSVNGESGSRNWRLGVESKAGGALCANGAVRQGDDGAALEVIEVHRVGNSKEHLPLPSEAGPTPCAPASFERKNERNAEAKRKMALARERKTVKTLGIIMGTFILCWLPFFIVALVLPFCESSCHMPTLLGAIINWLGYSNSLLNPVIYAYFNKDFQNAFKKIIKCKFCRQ

[9] = biological target: T4, 5-hydroxytryptamine receptor 1A; type: functional, cell-based; remark: listed apart in the source
Note: assay procedure not described here.

Sequence of Gamma-aminobutyric acid receptor subunit alpha-1 (P62813 whole entry): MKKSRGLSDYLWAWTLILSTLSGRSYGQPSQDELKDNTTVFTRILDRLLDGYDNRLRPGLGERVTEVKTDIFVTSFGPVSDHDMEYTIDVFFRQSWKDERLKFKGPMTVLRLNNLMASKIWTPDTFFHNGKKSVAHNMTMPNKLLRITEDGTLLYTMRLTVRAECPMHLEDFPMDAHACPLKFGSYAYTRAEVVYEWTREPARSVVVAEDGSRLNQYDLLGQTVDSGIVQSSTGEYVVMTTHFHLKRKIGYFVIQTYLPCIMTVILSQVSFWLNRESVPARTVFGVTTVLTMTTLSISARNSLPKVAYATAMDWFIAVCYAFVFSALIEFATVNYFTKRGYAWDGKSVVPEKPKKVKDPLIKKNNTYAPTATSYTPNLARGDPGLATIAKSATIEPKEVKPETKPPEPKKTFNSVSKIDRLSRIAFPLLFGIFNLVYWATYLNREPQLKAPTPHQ
Sequence of Melanocortin receptor 3 (P41968 whole entry): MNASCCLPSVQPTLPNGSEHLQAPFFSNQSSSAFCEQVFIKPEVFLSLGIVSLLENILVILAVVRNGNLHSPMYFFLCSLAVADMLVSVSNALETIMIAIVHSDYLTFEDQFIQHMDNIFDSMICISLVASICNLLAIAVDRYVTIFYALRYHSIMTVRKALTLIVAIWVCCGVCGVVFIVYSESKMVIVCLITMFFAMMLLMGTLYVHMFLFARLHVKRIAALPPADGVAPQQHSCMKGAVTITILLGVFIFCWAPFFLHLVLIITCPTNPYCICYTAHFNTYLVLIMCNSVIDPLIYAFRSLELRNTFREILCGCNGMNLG
Sequence of Histamine H2 receptor (P25021 whole entry): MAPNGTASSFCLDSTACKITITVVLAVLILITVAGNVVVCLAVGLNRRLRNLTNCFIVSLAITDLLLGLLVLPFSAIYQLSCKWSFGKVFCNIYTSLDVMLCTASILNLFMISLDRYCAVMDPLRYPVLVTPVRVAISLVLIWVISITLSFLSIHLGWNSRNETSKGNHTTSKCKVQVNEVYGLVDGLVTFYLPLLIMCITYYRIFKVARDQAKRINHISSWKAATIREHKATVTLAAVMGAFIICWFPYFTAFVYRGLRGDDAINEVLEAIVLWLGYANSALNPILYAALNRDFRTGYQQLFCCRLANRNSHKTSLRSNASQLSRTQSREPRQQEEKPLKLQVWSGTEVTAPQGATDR
Sequence of D(1A) dopamine receptor (P21728 whole entry): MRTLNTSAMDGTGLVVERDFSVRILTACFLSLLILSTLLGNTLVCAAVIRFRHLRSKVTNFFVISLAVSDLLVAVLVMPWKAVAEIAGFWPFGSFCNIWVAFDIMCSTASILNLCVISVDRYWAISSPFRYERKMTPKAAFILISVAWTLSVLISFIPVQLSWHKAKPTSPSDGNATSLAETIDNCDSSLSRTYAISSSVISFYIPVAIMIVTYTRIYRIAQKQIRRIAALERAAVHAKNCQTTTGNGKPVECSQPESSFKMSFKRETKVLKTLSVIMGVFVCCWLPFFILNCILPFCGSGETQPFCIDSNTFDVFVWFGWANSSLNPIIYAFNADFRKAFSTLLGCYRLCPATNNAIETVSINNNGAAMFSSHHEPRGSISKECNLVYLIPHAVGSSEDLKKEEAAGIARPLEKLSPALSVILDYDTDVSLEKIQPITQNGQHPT

Row | Compound | AC50 [1] [µM] | AC50 [2] [µM] | AC50 [3] [µM] | AC50 [4] [µM] | AC50 [5] [µM] | AC50 [6] [µM] | AC50 [7] [µM] | AC50 [8] [µM] | AC50 [9] [µM]
1 | O=C(O[C@H]1C[N+]2(CCCOc3ccccc3)CCC1CC2)C(O)(c1cccs1)c1cccs1 [ACLIDINIUM BROMIDE] | > 10 | > 30 | > 30 | > 30 | > 30 | – | – | – | –
2 | Nc1cc(N2CCCCC2)nc(N)[n+]1[O-] [MINOXIDIL] | > 10 | > 30 | > 30 | – | > 30 | > 30 | > 30 | > 30 | –
3 | CCN(CC)C(C)C(=O)c1ccccc1 (configuration not stated) [DIETHYLPROPION] | > 10 | > 30 | > 30 | > 30 | > 30 | > 10 | > 10 | > 10 | > 10
4 | N=C(N)NC(=O)Cc1c(Cl)cccc1Cl [GUANFACINE] | > 30 | > 30 | > 30 | > 30 | > 30 | > 30 | > 30 | 5.4 | > 30
5 | SITOSTEROLS | > 30 | > 30 | > 30 | > 30 | > 30 | > 30 | > 30 | > 30 | > 30
6 | CC1NCCOC1c1ccccc1 (configuration not stated) [PHENMETRAZINE] | > 10 | > 30 | > 30 | > 30 | > 30 | > 10 | > 10 | > 10 | > 10
7 | TEPRENONE | > 10 | > 30 | > 30 | – | > 30 | > 10 | > 10 | > 30 | > 30
8 | CC(NC(C)(C)C)C(=O)c1cccc(Cl)c1 (configuration not stated) [BUPROPION] | – | > 10 | > 30 | > 30 | > 30 | > 10 | > 10 | > 10 | > 10
9 | CC1=C(CC(=O)O)c2cc(F)ccc2/C1=C\c1ccc([S+](C)[O-])cc1 (configuration not stated) | > 10 | > 30 | > 30 | > 30 | > 30 | > 10 | > 10 | > 10 | > 10
10 | CC1Cc2ccccc2N1NC(=O)c1ccc(Cl)c(S(N)(=O)=O)c1 (configuration not stated) [INDAPAMIDE] | > 10 | > 30 | > 30 | > 30 | > 30 | > 10 | > 10 | > 30 | –
11 | Cc1nnc2n1-c1ccc(Cl)cc1C(c1ccccc1)=NC2 [ALPRAZOLAM] | > 10 | > 30 | > 30 | > 30 | > 30 | > 10 | > 10 | > 10 | > 10
12 | Oc1cc(O)c2c(c1)O[C@H](c1ccc(O)c(O)c1)[C@@H](O)C2 [CIANIDANOL] | > 10 | > 30 | > 30 | > 30 | > 30 | > 10 | > 10 | > 10 | > 10
13 | O=C(O)CCCC[C@@H]1SC[C@@H]2NC(=O)N[C@@H]21 [BIOTIN] | – | > 30 | > 10 | > 10 | > 10 | > 10 | > 10 | > 10 | > 10
14 | CN1C2CCCC1CC(NC(=O)c1nn(C)c3ccccc13)C2 (configuration not stated) [GRANISETRON] | > 10 | – | > 30 | > 30 | > 30 | > 10 | > 10 | > 10 | > 10
15 | CCOC(=O)C1=C(C)NC(C)=C(C(=O)OC)C1c1cccc(Cl)c1Cl (configuration not stated) [FELODIPINE] | > 10 | > 10 | > 30 | 28 | 8.41 | > 10 | > 10 | > 10 | > 10
16 | CC(C)(N)Cc1ccccc1 [PHENTERMINE] | > 10 | > 30 | > 30 | > 30 | > 30 | > 10 | > 10 | > 10 | > 10
17 | OCCN(CCO)c1nc(N2CCCCC2)c2nc(N(CCO)CCO)nc(N3CCCCC3)c2n1 [DIPYRIDAMOLE] | > 30 | > 30 | > 30 | – | > 30 | > 30 | > 30 | > 30 | > 10
18 | Cc1cnc(Nc2ccc(OCCN3CCCC3)cc2)nc1Nc1cccc(S(=O)(=O)NC(C)(C)C)c1 [FEDRATINIB] | > 10 | > 30 | > 30 | > 30 | > 30 | > 10 | > 10 | – | –
19 | Cc1ccc(-c2ncc(Cl)cc2-c2ccc(S(C)(=O)=O)cc2)cn1 [ETORICOXIB] | > 10 | > 10 | > 10 | > 30 | > 10 | > 10 | > 10 | > 10 | > 10
20 | CCN(CC)CC(=O)Nc1c(C)cccc1C [LIDOCAINE] | – | – | 23 | > 30 | > 30 | – | – | – | –
21 | COc1ccc2c3c1O[C@H]1C(=O)CC[C@H]4[C@@H](C2)N(C)CC[C@]314 [HYDROCODONE] | > 10 | > 30 | > 30 | > 30 | > 30 | > 10 | > 10 | > 10 | > 10
22 | O=C1CN=C(c2ccccc2Cl)c2cc([N+](=O)[O-])ccc2N1 [CLONAZEPAM] | > 10 | > 30 | > 30 | > 30 | > 30 | > 10 | > 10 | > 10 | > 10
23 | CN1C(=O)CN=C(c2ccccc2F)c2cc([N+](=O)[O-])ccc21 [FLUNITRAZEPAM] | > 10 | > 10 | 18.6 | > 30 | > 30 | > 10 | > 10 | > 10 | > 10
